# In US9326506B2, “Preparation method, agricultural composition and applications of natural brassinolide analogs” (CHENGDU NEWSUN CROPSCIENCE CO., LTD, priority 2012, dated 2016):
# Tested on: rice
# Assay: Low temperature assay on rice seedlings
# Assay type: in vivo
# Method: According to a low temperature assay, we measured parameters including plant height, number of leaf, area of leaf, number of tiller, weight of root at low temperature to completely determine effects of the natural brassinolide analogues on the resistance to low temperature of a plant.
# The natural brassinolide analogues, BR1, BR2, BR3, BR4, BR5 and BR6, used herein, were those prepared by the method of Example 1. Respectively the analogues were dissolved into 95% (V/V) ethanol solution, and then diluted with pure water to 1 mg/L, 0.1 mg/L, 0.01 mg/L, 0.001 mg/L and 0.0001 mg/L. In addition, pure water was used as a control.
# After rice seeds were disinfected by using 5% sodium hypochlorite solution treatment, they were rinsed with distilled water until their pH>7, placed into a petri dish in a dark incubator, and cultured by using water at 30° C.±2° C. for 9 days. Then respectively the nine-day-old etiolated seedlings of rice were immersed in the above solutions containing different concentrations of the natural brassinolide analogues or pure water, and cultured at the temperature of 1° C., 2° C., 3° C., 4° C. and 5° C. for 24 hr. The parameters including plant height, area of leaf and weight of root after 3, 6, 9 and 12 days and number of leaf and number of tiller after 12 days were measured.
smiles,measurement,setting,value
CC(C)C[C@@H](O)[C@H](O)[C@@H](C)[C@H]1CCC2C3CC(=O)C4C[C@H](O)[C@H](O)C[C@]4(C)C3CC[C@@]21C (some centres unmarked) [BR5],Height,"0.01 mg/l, 3 °C, 9 days",7.5 cm
same,Weight of root,"0.01 mg/l, 3 °C, 9 days",2.7 g
same,Area of leaf,"0.01 mg/l, 3 °C, 12 days",13.2 cm^2
same,Height,"0.01 mg/l, 3 °C, 12 days",7.9 cm
same,Number of leaf,"0.01 mg/l, 3 °C, 12 days",3
same,Number of tiller,"0.01 mg/l, 3 °C, 12 days",2
same,Weight of root,"0.01 mg/l, 3 °C, 12 days",2.9 g
same,Area of leaf,"0.01 mg/l, 4 °C, 3 days",10.8 cm^2
same,Height,"0.01 mg/l, 4 °C, 3 days",7.1 cm
same,Weight of root,"0.01 mg/l, 4 °C, 3 days",2.5 g
same,Area of leaf,"0.01 mg/l, 4 °C, 6 days",12.4 cm^2
same,Height,"0.01 mg/l, 4 °C, 6 days",7.5 cm
same,Weight of root,"0.01 mg/l, 4 °C, 6 days",2.6 g
same,Area of leaf,"0.01 mg/l, 4 °C, 9 days",13.1 cm^2
same,Height,"0.01 mg/l, 4 °C, 9 days",7.6 cm
same,Weight of root,"0.01 mg/l, 4 °C, 9 days",2.9 g
same,Area of leaf,"0.01 mg/l, 4 °C, 12 days",13.5 cm^2
same,Height,"0.01 mg/l, 4 °C, 12 days",7.8 cm
same,Number of leaf,"0.01 mg/l, 4 °C, 12 days",3
same,Number of tiller,"0.01 mg/l, 4 °C, 12 days",2
same,Weight of root,"0.01 mg/l, 4 °C, 12 days",3.0 g
same,Area of leaf,"0.01 mg/l, 5 °C, 3 days",10.3 cm^2
same,Height,"0.01 mg/l, 5 °C, 3 days",7.4 cm
same,Weight of root,"0.01 mg/l, 5 °C, 3 days",2.8 g
same,Area of leaf,"0.01 mg/l, 5 °C, 6 days",13.1 cm^2
same,Height,"0.01 mg/l, 5 °C, 6 days",7.4 cm
same,Weight of root,"0.01 mg/l, 5 °C, 6 days",3.0 g
same,Area of leaf,"0.01 mg/l, 5 °C, 9 days",16.4 cm^2
same,Height,"0.01 mg/l, 5 °C, 9 days",8 cm
same,Weight of root,"0.01 mg/l, 5 °C, 9 days",3.4 g
same,Area of leaf,"0.01 mg/l, 5 °C, 12 days",17 cm^2
same,Height,"0.01 mg/l, 5 °C, 12 days",8.2 cm
same,Number of leaf,"0.01 mg/l, 5 °C, 12 days",4
same,Number of tiller,"0.01 mg/l, 5 °C, 12 days",3
same,Weight of root,"0.01 mg/l, 5 °C, 12 days",3.6 g
same,Area of leaf,"0.1 mg/l, 1 °C, 3 days",10.1 cm^2
same,Height,"0.1 mg/l, 1 °C, 3 days",7.0 cm
same,Weight of root,"0.1 mg/l, 1 °C, 3 days",2.8 g
same,Area of leaf,"0.1 mg/l, 1 °C, 6 days",11 cm^2
same,Height,"0.1 mg/l, 1 °C, 6 days",7.2 cm
same,Weight of root,"0.1 mg/l, 1 °C, 6 days",3.0 g
same,Area of leaf,"0.1 mg/l, 1 °C, 9 days",12 cm^2
same,Height,"0.1 mg/l, 1 °C, 9 days",7.2 cm
same,Weight of root,"0.1 mg/l, 1 °C, 9 days",3.4 g
same,Area of leaf,"0.1 mg/l, 1 °C, 12 days",13.4 cm^2
same,Height,"0.1 mg/l, 1 °C, 12 days",7.4 cm
same,Number of leaf,"0.1 mg/l, 1 °C, 12 days",3
same,Number of tiller,"0.1 mg/l, 1 °C, 12 days",3
same,Weight of root,"0.1 mg/l, 1 °C, 12 days",3.4 g
same,Area of leaf,"0.1 mg/l, 2 °C, 3 days",10.4 cm^2
same,Height,"0.1 mg/l, 2 °C, 3 days",7.1 cm
same,Weight of root,"0.1 mg/l, 2 °C, 3 days",2.8 g
same,Area of leaf,"0.1 mg/l, 2 °C, 6 days",11.2 cm^2
same,Height,"0.1 mg/l, 2 °C, 6 days",7.3 cm
same,Weight of root,"0.1 mg/l, 2 °C, 6 days",3.0 g
same,Area of leaf,"0.1 mg/l, 2 °C, 9 days",12.4 cm^2
same,Height,"0.1 mg/l, 2 °C, 9 days",7.3 cm
same,Weight of root,"0.1 mg/l, 2 °C, 9 days",3.1 g
same,Area of leaf,"0.1 mg/l, 2 °C, 12 days",13.6 cm^2
same,Height,"0.1 mg/l, 2 °C, 12 days",7.4 cm
same,Number of leaf,"0.1 mg/l, 2 °C, 12 days",3
same,Number of tiller,"0.1 mg/l, 2 °C, 12 days",3
same,Weight of root,"0.1 mg/l, 2 °C, 12 days",3.2 g
same,Area of leaf,"0.1 mg/l, 3 °C, 3 days",10.5 cm^2
same,Height,"0.1 mg/l, 3 °C, 3 days",7.4 cm
same,Weight of root,"0.1 mg/l, 3 °C, 3 days",2.5 g
same,Area of leaf,"0.1 mg/l, 3 °C, 6 days",12 cm^2
same,Height,"0.1 mg/l, 3 °C, 6 days",7.4 cm
same,Weight of root,"0.1 mg/l, 3 °C, 6 days",2.7 g
same,Area of leaf,"0.1 mg/l, 3 °C, 9 days",12.6 cm^2
same,Height,"0.1 mg/l, 3 °C, 9 days",7.9 cm
same,Weight of root,"0.1 mg/l, 3 °C, 9 days",2.7 g
same,Area of leaf,"0.1 mg/l, 3 °C, 12 days",13.4 cm^2
same,Height,"0.1 mg/l, 3 °C, 12 days",7.9 cm
same,Number of leaf,"0.1 mg/l, 3 °C, 12 days",3
same,Number of tiller,"0.1 mg/l, 3 °C, 12 days",2
same,Weight of root,"0.1 mg/l, 3 °C, 12 days",2.9 g
same,Area of leaf,"0.1 mg/l, 4 °C, 3 days",10.8 cm^2
same,Height,"0.1 mg/l, 4 °C, 3 days",7.5 cm
same,Weight of root,"0.1 mg/l, 4 °C, 3 days",2.5 g
same,Area of leaf,"0.1 mg/l, 4 °C, 6 days",12.1 cm^2
same,Height,"0.1 mg/l, 4 °C, 6 days",7.5 cm
same,Weight of root,"0.1 mg/l, 4 °C, 6 days",2.7 g
same,Area of leaf,"0.1 mg/l, 4 °C, 9 days",13.2 cm^2
same,Height,"0.1 mg/l, 4 °C, 9 days",8 cm
same,Weight of root,"0.1 mg/l, 4 °C, 9 days",2.9 g
same,Area of leaf,"0.1 mg/l, 4 °C, 12 days",13.8 cm^2
same,Height,"0.1 mg/l, 4 °C, 12 days",8 cm
same,Number of leaf,"0.1 mg/l, 4 °C, 12 days",3
same,Number of tiller,"0.1 mg/l, 4 °C, 12 days",2
same,Weight of root,"0.1 mg/l, 4 °C, 12 days",3 g
same,Area of leaf,"0.1 mg/l, 5 °C, 3 days",11 cm^2
same,Height,"0.1 mg/l, 5 °C, 3 days",7.5 cm
same,Weight of root,"0.1 mg/l, 5 °C, 3 days",2.9 g
same,Area of leaf,"0.1 mg/l, 5 °C, 6 days",12.9 cm^2
same,Height,"0.1 mg/l, 5 °C, 6 days",7.6 cm
same,Weight of root,"0.1 mg/l, 5 °C, 6 days",3.2 g
same,Area of leaf,"0.1 mg/l, 5 °C, 9 days",16.8 cm^2
same,Height,"0.1 mg/l, 5 °C, 9 days",8 cm
same,Weight of root,"0.1 mg/l, 5 °C, 9 days",3.5 g
same,Area of leaf,"0.1 mg/l, 5 °C, 12 days",19 cm^2
same,Height,"0.1 mg/l, 5 °C, 12 days",8.3 cm
same,Number of leaf,"0.1 mg/l, 5 °C, 12 days",3
same,Number of tiller,"0.1 mg/l, 5 °C, 12 days",2
same,Weight of root,"0.1 mg/l, 5 °C, 12 days",4.1 g
same,Area of leaf,"1 mg/l, 1 °C, 3 days",10 cm^2
same,Height,"1 mg/l, 1 °C, 3 days",7.0 cm
same,Weight of root,"1 mg/l, 1 °C, 3 days",2.6 g
same,Area of leaf,"1 mg/l, 1 °C, 6 days",11.2 cm^2
same,Height,"1 mg/l, 1 °C, 6 days",7.3 cm
same,Weight of root,"1 mg/l, 1 °C, 6 days",3.1 g
same,Area of leaf,"1 mg/l, 1 °C, 9 days",12.4 cm^2
same,Height,"1 mg/l, 1 °C, 9 days",7.3 cm
same,Weight of root,"1 mg/l, 1 °C, 9 days",3.1 g
same,Area of leaf,"1 mg/l, 1 °C, 12 days",13 cm^2
same,Height,"1 mg/l, 1 °C, 12 days",7.9 cm
same,Number of leaf,"1 mg/l, 1 °C, 12 days",3
same,Number of tiller,"1 mg/l, 1 °C, 12 days",3
same,Weight of root,"1 mg/l, 1 °C, 12 days",3.7 g
same,Area of leaf,"1 mg/l, 2 °C, 3 days",10.2 cm^2
same,Height,"1 mg/l, 2 °C, 3 days",7.1 cm
same,Weight of root,"1 mg/l, 2 °C, 3 days",2.6 g
same,Area of leaf,"1 mg/l, 2 °C, 6 days",11.7 cm^2
same,Height,"1 mg/l, 2 °C, 6 days",7.2 cm
same,Weight of root,"1 mg/l, 2 °C, 6 days",3.0 g
same,Area of leaf,"1 mg/l, 2 °C, 9 days",12.6 cm^2
same,Height,"1 mg/l, 2 °C, 9 days",7.2 cm
same,Weight of root,"1 mg/l, 2 °C, 9 days",3.2 g
same,Area of leaf,"1 mg/l, 2 °C, 12 days",12.8 cm^2
same,Height,"1 mg/l, 2 °C, 12 days",7.8 cm
same,Number of leaf,"1 mg/l, 2 °C, 12 days",3
same,Number of tiller,"1 mg/l, 2 °C, 12 days",3
same,Weight of root,"1 mg/l, 2 °C, 12 days",3.7 g
same,Area of leaf,"1 mg/l, 3 °C, 3 days",10.4 cm^2
same,Height,"1 mg/l, 3 °C, 3 days",7.2 cm
same,Weight of root,"1 mg/l, 3 °C, 3 days",2.5 g
same,Area of leaf,"1 mg/l, 3 °C, 6 days",12 cm^2
same,Height,"1 mg/l, 3 °C, 6 days",7.5 cm
same,Weight of root,"1 mg/l, 3 °C, 6 days",2.6 g
same,Area of leaf,"1 mg/l, 3 °C, 9 days",12.1 cm^2
same,Height,"1 mg/l, 3 °C, 9 days",7.6 cm
same,Weight of root,"1 mg/l, 3 °C, 9 days",2.8 g
same,Area of leaf,"1 mg/l, 3 °C, 12 days",13 cm^2
same,Height,"1 mg/l, 3 °C, 12 days",8.1 cm
same,Number of leaf,"1 mg/l, 3 °C, 12 days",3
same,Number of tiller,"1 mg/l, 3 °C, 12 days",2
same,Weight of root,"1 mg/l, 3 °C, 12 days",2.9 g
same,Area of leaf,"1 mg/l, 4 °C, 3 days",10.9 cm^2
same,Height,"1 mg/l, 4 °C, 3 days",7.2 cm
same,Weight of root,"1 mg/l, 4 °C, 3 days",2.5 g
same,Area of leaf,"1 mg/l, 4 °C, 6 days",12.6 cm^2
same,Height,"1 mg/l, 4 °C, 6 days",7.5 cm
same,Weight of root,"1 mg/l, 4 °C, 6 days",2.7 g
same,Area of leaf,"1 mg/l, 4 °C, 9 days",13.2 cm^2
same,Height,"1 mg/l, 4 °C, 9 days",7.8 cm
same,Weight of root,"1 mg/l, 4 °C, 9 days",3.1 g
same,Area of leaf,"1 mg/l, 4 °C, 12 days",13.4 cm^2
same,Height,"1 mg/l, 4 °C, 12 days",8.2 cm
same,Number of leaf,"1 mg/l, 4 °C, 12 days",3
same,Number of tiller,"1 mg/l, 4 °C, 12 days",2
same,Weight of root,"1 mg/l, 4 °C, 12 days",3.2 g
same,Area of leaf,"1 mg/l, 5 °C, 3 days",11.1 cm^2
same,Height,"1 mg/l, 5 °C, 3 days",7.3 cm
same,Weight of root,"1 mg/l, 5 °C, 3 days",2.9 g
same,Area of leaf,"1 mg/l, 5 °C, 6 days",13.1 cm^2
same,Height,"1 mg/l, 5 °C, 6 days",7.7 cm
same,Weight of root,"1 mg/l, 5 °C, 6 days",3.5 g
same,Area of leaf,"1 mg/l, 5 °C, 9 days",18 cm^2
same,Height,"1 mg/l, 5 °C, 9 days",8 cm
same,Weight of root,"1 mg/l, 5 °C, 9 days",3.6 g
same,Area of leaf,"1 mg/l, 5 °C, 12 days",20 cm^2
same,Height,"1 mg/l, 5 °C, 12 days",8.4 cm
same,Number of leaf,"1 mg/l, 5 °C, 12 days",3
same,Number of tiller,"1 mg/l, 5 °C, 12 days",2
same,Weight of root,"1 mg/l, 5 °C, 12 days",4.5 g
same,Effects on resistance to low temperature compared among analogues,in vivo,"more than those of BR2, BR3 and BR4"
